The text below walks through data of PubChem BioAssay (NCI).

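Assay format: 96-well plates, 48-hour exposure. Definition used: TGI = concentration required for complete inhibition of growth.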

What all share (experiment): NCI tumour cell line growth inhibition, 48 h
The subject of assay [1] is MDA-N.
For assay [2], the system named is SN12K1 renal.
For assay [3], the system named is P388 leukemia.
For assay [4], the system named is KM20L2 colon.
Assay [5] relates to P388/ADR leukemia.
Assay [6] has as its system XF 498 CNS.

Consider `O=C1Nc2ccc(Cl)cc2/C1=C\c1c(Cl)nc2sccn12`, for which, in assay [1], the TGI was 8.42 µM.
`CC(=O)NC1=C[C@@H]([C@H]2COC(C)(C)O2)OC1=O`: the TGI in assay [2], in assay [3], in assay [4], in assay [5] and in assay [6] was > 100 µM throughout.
